Data taken from patent US10716790B2, “Method for treating cancer by combined use” (priority 2015, dated 2020).

What was measured:
[1] = Body weight change of MOLM-13 tumor-bearing NOD-SCID mice under drug administration; format: in vivo, mouse; conditions: oral
Description: (§1) Human acute myeloid leukemia cell line MOLM-13 cells having a FLT3-ITD mutation and wild-type TP53 were suspended to 5×10^7 cells/mL using phosphate-buffered saline. 0.1 mL of the prepared cell suspension was subcutaneously transplanted to each NOD-SCID mouse (male, 5 to 7 weeks old). On 6 days after the tumor inoculation, after confirmation that the average tumor volume exceeded 100 mm^3, the mice were randomized (N=6/group) on the basis of their tumor volume values. […] The administration was performed once a day for 5 consecutive days (6 to 10 days after the tumor inoculation) from the date of randomization (6 days after the tumor inoculation), and after a 2-day drug holiday, performed once a day for 4 consecutive days (13 to 16 days after the tumor inoculation). The length (mm) and width (mm) of tumor were measured over time using an electronic digital caliper. Tumor growth inhibition % (TGI %) on the date of assessment (17 days after the tumor inoculation) calculated according to calculation formula (4) shown below was used in evaluation. Also, the body weights were measured over time using an automatic balance for small animals, and body weight change % was calculated according to calculation formula (5) shown below to assess the influence of drug administration on the body weights. In addition, the results of the last body weight measurement were used in dose calculation. TGI (%)=(1−A/B)×100 (4)
(§2) *: The tumor volume was calculated according to ½×[Major axis of tumor]×[Minor axis of tumor]×[Minor axis of tumor]. Body weight change (%)=Average body weight change % of the individuals Body weight change % of each individual=[…] (5)
BWn: Body weight on day n
BWs: Body weight on the start day of administration

[2] = test system: human acute myeloid leukemia cell line MOLM-13 cells having a FLT3-ITD mutation and wild-type TP53; assay: In vivo effect of combined use on subcutaneously transplanted MOLM-13 tumors in NOD-SCID mice; conditions: oral; for TGI (%): 17 days after tumor inoculation
Description: as §1
A: Average tumor volume of the compound-administered group on the date of assessment (*)
B: Average tumor volume of the untreated control group on the date of assessment (*)
as §2

[3] = DS-3032b 25 mg/kg, day 6 after tumor inoculation
[4] = DS-3032b 25 mg/kg, day 8 after tumor inoculation
[5] = DS-3032b 25 mg/kg, day 10 after tumor inoculation
[6] = DS-3032b 25 mg/kg, day 13 after tumor inoculation
[7] = DS-3032b 25 mg/kg, day 15 after tumor inoculation
[8] = DS-3032b 25 mg/kg, day 17 after tumor inoculation
[9] = DS-3032b 50 mg/kg, day 6 after tumor inoculation
[10] = DS-3032b 50 mg/kg, day 8 after tumor inoculation
[11] = DS-3032b 50 mg/kg, day 10 after tumor inoculation
[12] = DS-3032b 50 mg/kg, day 13 after tumor inoculation
[13] = DS-3032b 50 mg/kg, day 15 after tumor inoculation
[14] = DS-3032b 50 mg/kg, day 17 after tumor inoculation

## CC(C)(C)c1cc(NC(=O)Nc2ccc(-c3cn4c(n3)sc3cc(OCCN5CCOCC5)ccc34)cc2)no1 [Quizartinib, N-(5-tert-butyl-isoxazol-3-yl)-N′-{4-[7-(2-morpholin-4-yl-ethoxy)imidazo[2,1-b][1,3]benzothiazol-2-yl]phenyl}urea, reference compound]
[1]; Quizartinib 0.5 mg/kg, day 6 after tumor inoculation
  Body weight change (%), average: 0.0%
[1]; Quizartinib 0.5 mg/kg, day 8 after tumor inoculation
  Body weight change (%), average: 4.2%
[1]; Quizartinib 0.5 mg/kg, day 10 after tumor inoculation
  Body weight change (%), average: 4.2%
[1]; Quizartinib 0.5 mg/kg, day 13 after tumor inoculation
  Body weight change (%), average: 8.5%
[1]; Quizartinib 0.5 mg/kg, day 15 after tumor inoculation
  Body weight change (%), average: 9.6%
[1]; Quizartinib 0.5 mg/kg, day 17 after tumor inoculation
  Body weight change (%), average: 10.7%
[1]; Quizartinib 1 mg/kg, day 6 after tumor inoculation
  Body weight change (%), average: 0.0%
[1]; Quizartinib 1 mg/kg, day 8 after tumor inoculation
  Body weight change (%), average: 0.2%
[1]; Quizartinib 1 mg/kg, day 10 after tumor inoculation
  Body weight change (%), average: 1.8%
[1]; Quizartinib 1 mg/kg, day 13 after tumor inoculation
  Body weight change (%), average: 4.6%
[1]; Quizartinib 1 mg/kg, day 15 after tumor inoculation
  Body weight change (%), average: 5.1%
[1]; Quizartinib 1 mg/kg, day 17 after tumor inoculation
  Body weight change (%), average: 5.8%

## CC1(C)CCC2(CC1)N[C@@H](C(=O)N[C@@H]1CC[C@@H](C(N)=O)OC1)[C@H](c1ccnc(Cl)c1F)[C@]21C(=O)Nc2cc(Cl)ccc21.Cc1ccc(S(=O)(=O)O)cc1 [Compound A, (3′R,4′S,5′R)—N-[(3R,6S)-6-carbamoyltetrahydro-2H-pyran-3-yl]-6″-chloro-4′-(2-chloro-3-fluoropyridin-4-yl)-4,4-dimethyl-2″-oxo-1″,2″-dihydrodispiro[cyclohexane-1,2′-pyrrolidine-3′,3″-indole]-5′-carboxamide tosylate]
[2]; Compound A 25 mg/kg
  TGI (%): 38%
[2]; Compound A 50 mg/kg
  TGI (%): 82%
[2]; [3]
  Estimated tumor volume (mm^3), average: 169 mm^3
[2]; [4]
  Estimated tumor volume (mm^3), average: 266 mm^3
[2]; [5]
  Estimated tumor volume (mm^3), average: 425 mm^3
[2]; [6]
  Estimated tumor volume (mm^3), average: 812 mm^3
[2]; [7]
  Estimated tumor volume (mm^3), average: 983 mm^3
[2]; [8]
  Estimated tumor volume (mm^3), average: 1661 mm^3
[2]; [9]
  Estimated tumor volume (mm^3), average: 162 mm^3
[2]; [10]
  Estimated tumor volume (mm^3), average: 195 mm^3
[2]; [11]
  Estimated tumor volume (mm^3), average: 210 mm^3
[2]; [12]
  Estimated tumor volume (mm^3), average: 325 mm^3
[2]; [13]
  Estimated tumor volume (mm^3), average: 375 mm^3
[2]; [14]
  Estimated tumor volume (mm^3), average: 467 mm^3
[1]; [3]
  Body weight change (%), average: 0.0%
[1]; [4]
  Body weight change (%), average: 2.1%
[1]; [5]
  Body weight change (%), average: 3.1%
[1]; [6]
  Body weight change (%), average: 6.4%
[1]; [7]
  Body weight change (%), average: 8.0%
[1]; [8]
  Body weight change (%), average: 10.6%
[1]; [9]
  Body weight change (%), average: 0.0%
[1]; [10]
  Body weight change (%), average: 1.5%
[1]; [11]
  Body weight change (%), average: 2.7%
[1]; [12]
  Body weight change (%), average: 5.5%
[1]; [13]
  Body weight change (%), average: 6.8%
[1]; [14]
  Body weight change (%), average: 5.8%
